Laboratory results as given in patent US20240398832A1, “CDK4 AND 6 INHIBITOR IN COMBINATION WITH FULVESTRANT FOR THE TREATMENT OF HORMONE RECEPTOR-POSITIVE, HUMAN EPIDERMAL GROWTH FACTOR RECEPTOR 2-NEGATIVE ADVANCED OR METASTATIC BREAST CANCER IN PATIENTS PREVIOUSLY TREATED WITH A CDK4 AND 6 INHIBITOR” (Eli Lilly and Company, priority 2021, published 2024).

Tests used:
[1] = test system: abemaciclib-resistant cells; assay: Characterization of effects of sequential treatment (proliferation, pRb signaling, androgen response); type: cell-based; conditions: in combination with ET
Protocol: (§1) Resistant breast cancer cells are prepared by treating breast cancer cell lines with amounts of a CDK4 and 6 inhibitor (either abemaciclib or palbociclib) in combination with 4-OH-tamoxifen (tamoxifen) for 120-144 h. The cells are sorted and screened for resistant cells, defined as geminin positive (GEM+), a marker of S/G2/M cell cycle accumulation. To confirm the resistant phenotype, cell lines are treated with tamoxifen plus the CDK4 and 6 inhibitor used to drive resistance (either abemaciclib or palbociclib). Resistant cancer cells generated by the above method are treated with abemaciclib in combination with an endocrine therapy (ET) comprising either fulvestrant or tamoxifen; or with palbociclib in combination with either fulvestrant or tamoxifen. Cell proliferation and viability are evaluated by Geminin/Ki67, annexin V, and colony formation assays. Mechanisms of resistance and the effects of sequential treatment of the CDK4 and 6 inhibitor in combination with either fulvestrant or tamoxifen are characterized by western blot and RNAseq analysis.

[2] = test system: abemaciclib-resistant cells; assay: Western blot analysis after sequential treatment; type: cell-based; conditions: in combination with ET
Protocol: as §1

[3] = test system: cell lines resistant to abemaciclib and tamoxifen; assay: Cell proliferation and viability assays (Geminin/Ki67, annexin V, colony formation), sequential treatment; type: cell-based; conditions: sequential treatment in combination with ET
Protocol: as §1

[4] = test system: Cancer cell lines that are resistant to palbociclib and tamoxifen; assay: Colony formation assay, sequential CDK4 and 6 inhibitor treatment; type: cell-based; conditions: sequential treatment in combination with ET (fulvestrant or tamoxifen)
Protocol: as §1

[5] = test system: Cancer cell lines that are resistant to palbociclib and tamoxifen; assay: Annexin V assay, sequential CDK4 and 6 inhibitor treatment; type: cell-based; conditions: sequential treatment in combination with ET (fulvestrant or tamoxifen)
Protocol: as §1

[6] = test system: HR+, HER2− advanced or metastatic breast cancer; conditions: abemaciclib 150 mg BID in combination with fulvestrant; patients; cited from earlier work
[7] = test system: Cancer cell lines that are resistant to palbociclib and tamoxifen; assay: Geminin/Ki67 cell proliferation assay, sequential CDK4 and 6 inhibitor treatment; type: cell-based; conditions: sequential treatment in combination with ET (fulvestrant or tamoxifen)
Protocol: as §1

[8] = test system: early breast cancer at high risk of recurrence; conditions: adjuvant setting; patients with early breast cancer at high risk of recurrence; cited from earlier work
[9] = test system: Cancer cell lines that are resistant to palbociclib and tamoxifen; assay: Characterization of effects of sequential treatment (proliferation, pRb signaling, androgen response); type: cell-based; conditions: sequential treatment in combination with ET
Protocol: as §1

[10] = test system: palbociclib-resistant cells; assay: Western blot analysis after sequential treatment; type: cell-based; conditions: in combination with ET
Protocol: as §1

[11] = test system: HR+, HER2− advanced or metastatic breast cancer; type: in vivo, human; conditions: investigation arm: abemaciclib 150 mg PO BID and fulvestrant 500 mg IM; expected
Protocol: As detailed below, a clinical trial is conducted as a Phase 3, global, multicenter, randomized, double-blind, placebo-controlled study in participants with HR+, HER2− advanced or metastatic breast cancer. The study will enroll adults who experienced disease progression on a CDK4 and 6 inhibitor and an aromatase inhibitor (AI) therapy in the first-line setting (initial therapy for advanced or metastatic breast cancer), or recurrence on or after a CDK4 and 6 inhibitor with endocrine therapy (ET) in the adjuvant setting.
The trial will include approximately 350 participants that will be randomly assigned to one of two intervention arms that include an investigational arm A: abemaciclib and fulvestrant and a control arm B: placebo and fulvestrant. […]
The primary endpoint, PFS by investigator assessment, is defined as the time from randomization until the first occurrence of documented disease progression as determined by investigator assessment per RECIST 1.1, or death from any cause in the absence of documented progressive disease. […]

Compound: CC(=O)c1c(C)c2cnc(Nc3ccc(N4CCNCC4)cn3)nc2n(C2CCCC2)c1=O [palbociclib, 6-acetyl-8-cyclopentyl-5-methyl-2-{[5-(piperazin-1-yl)pyridine-2-yl]amino}pyrido[2,3,-d]pyrimidin-7 (8H)-one]
- effects on proliferation, pRb signaling, or androgen response [1]: do not exhibit similar effects
- effects on FOXMI and cyclin A [2]: do not exhibit similar effects
- inhibition effects (% GEM+, colony formation ability, Ki67 levels, apoptosis) [3]: do not show similar inhibition effects

Compound: CCN1CCN(Cc2ccc(Nc3ncc(F)c(-c4cc(F)c5nc(C)n(C(C)C)c5c4)n3)nc2)CC1 [abemaciclib, [5-(4-ethyl-piperazin-1-ylmethyl)-pyridin-2-yl]-[5-fluoro-4-(7-fluoro-3-isopropyl-2-methyl-3H-benzoimidazol-5-yl)-pyrimidin-2-yl]-amine]
- colony formation ability [4]: decreased
- apoptosis [5]: increased
- OS benefit compared to fulvestrant/placebo [6]: clinically meaningful
- PFS benefit compared to fulvestrant/placebo [6]: clinically meaningful
- safety profile [6]: manageable safety profile
- % GEM+ [7]: decreased
- Ki67 levels [7]: decreased
- distant relapse-free survival (DRFS) [8]: significant improvement
- invasive disease-free survival (IDFS) [8]: significant improvement
- androgen response [9]: induction
- pRb signaling [9]: decreased
- proliferation [9]: decrease
- FOXMI, a regulator of senescence and apoptosis [10]: decrease
- cyclin A, a marker of mitosis [10]: decrease
- disease progression [11]: delay disease progression
